From patent US10766869B2, “Triazoles for the treatment of demyelinating dieases” (Vertex Pharmaceuticals Incorporated, priority 2015, dated 2020)
Where two headings read alike, the source gives them in different places.

Tested on: primary rat mixed cortical cells
Experiment: In vitro myelination assay (MBP positive myelin strands, fold myelin pixels above background)
Assay type: cell-based
Details: Rattus norvegicus; for fold induction at 1 µM: 1.0 μM compound; for fold induction at 10 µM: 10.0 μM compound
Description: In Vitro Myelination Assay
Compounds were screened for their ability to induce myelination using a primary rat mixed cortical cell culture assay, which contains neurons, oligodendrocyte precursor cells, oligodendrocytes, astrocytes and microglia. The assay quantifies myelination by measuring myelin basic protein (MBP) immunofluorescent positive myelin strands from images taken using a Cellomics Array Scan (model Arrayscan VTI HCS Reader) or a Molecular Devices Image Xpress (model IXM XL) high content imager. The myelin strands were quantitated using a custom created myelin detection software program. Test compounds were dissolved in DMSO to make a 10 mM initial stock solution. Dilutions were made in myelination medium to obtain the final solutions for the assay and were tested in primary rat mixed cortical cells at selected doses.
Primary rat mixed cortical cells were prepared from harvested cerebral cortices from postnatal day 1 (P1) rats (P1 Rat CD® IGS pups) were purchased from Charles River) in Complete Dissociation Medium, wherein the meninges were removed and the cortical tissue chopped with a razor blade into ˜1 mm^3 pieces. Tissue from 1-3 pups was collected and placed into 15 ml conical tubes in a total volume of 5 ml of Complete Dissociation Medium. Activated papain (3 ml) was added to each 15 ml conical tube and tissue was incubated at 37° C. for 30 minutes. After the 30 minute incubation, DNase (Sigma D4527; 75 μl of a 1 mg/ml stock) was added to each tube, followed by mechanical trituration using a 2 ml serological pipette and autopipettor to gently dissociate the tissue. Following trituration, larger tissue pieces were allowed to settle by gravity, and the supernatant containing dissociated cells was transferred to a 50 ml conical tube with 4 ml of trypsin inhibitor. Cells were pelleted by centrifugation, resuspended in myelination medium and filtered through a 40 μm filter. Cells were then seeded in 96-well plates (BD Biosciences, Black, PDL-coated, Cat. No. 356640) at 87,500-95,000 cells/well in a final volume of 200 μl of Myelination Medium in the presence or absence of compound and cultured for 14 days in a humidified 37° C. incubator with 5% CO2. Half the medium was removed and replaced with fresh medium containing 1× compound on days 6 and 10. Using a Biotek automatic plate washer (model Biomek® FXP Laboratory Automation Workstation), cells were fixed with 4% paraformaldehyde on day 14, washed with PBS and blocked in 5% normal goat serum (Vector Laboratories, S-1000) in 0.1% PBS-TritonX-100 (PBST) for 1 hour. Cells were stained with 1:500 anti-MBP (Covance, cat # SMI99) primary antibody in 1% normal goat serum in 0.1% PBST for 2 hours at room temperature followed by 2 washes with PBST. A final incubation in secondary antibody (1:1000, Invitrogen, Alexa-488 anti-mouse IgG2b) and 1:10,000 Hoechst dye in 1% normal goat serum in 0.1% PBST was performed for 2 hours at room temperature. Plates were washed with PBS and then scanned on a Cellomics Array Scan using a 10× objective (25 images per well) or the Image Xpress using a 10× objective (9 image per well). Images were analyzed using Vertex myelin detection software (described below) to quantify total MBP myelin pixels per well. Fold myelin pixels above background at two concentrations (1.0 μM and 10.0 μM) relative to baseline of no added compound are reported below in Table 4. Standard deviation for each compound concentration was calculated using all replicates and using a standard deviation formula commonly used in the art.
One of skill in the art would recognize that for this type of primary neuronal mixed cell assay variability between different assay runs is to be expected even though the protocol is the same for each assay run. For instance, variability may be due to small differences in cell viability, cell density, age of the animals, etc.
Vertex Myelin Detection Software: […]

[1] = relative to baseline of no added compound, read-out: Fold myelin pixels above background, 1.0 μM
[2] = relative to baseline of no added compound, read-out: Fold myelin pixels above background, 10.0 μM
[3] = relative to baseline of no added compound, read-out: Fold myelin pixels above background
[4] = read-out: Fold myelin pixels above background relative to baseline of no added compound

SMILES | fold induction at 1 µM [1] | fold induction at 10 µM [2] | fold induction at 1 µM [3] | fold induction at 10 µM [3] | also measured
CC(=O)N1CCCN(c2cc(C)cc(Nc3ncn(-c4ccccc4)n3)c2)CC1 [Compound 280, 1-[4-[3-methyl-5-[(1-phenyl-1,2,4-triazol-3-yl)amino]phenyl]-1,4-diazepan-1-yl]ethanone] | 1000 to 10000 | 10 to 100 | – | – | –
Cc1cc(Nc2ncn(-c3cc(F)cc(F)c3)n2)cc([C@H]2CCN(C3COC3)C2)c1 (single isomer, unassigned) [Compound 473] | – | – | 100 to 1000 | 1 to 10 | –
Cc1cc(Nc2ncn(-c3ccc(F)c(F)c3)n2)cc(OC2CCCOC2)c1 (stereo not drawn) [Compound 638, 1-(3,4-difluorophenyl)-N-(3-methyl-5-tetrahydropyran-3-yloxy-phenyl)-1,2,4-triazol-3-amine] | – | – | 10 to 100 | 10 to 100 | –
Cc1cc(Nc2ncn(-c3cnccn3)n2)cc(N2CCN(C)CC2)c1 [Compound 68, N-[3-methyl-5-(4-methylpiperazin-1-yl)phenyl]-1-pyrazin-2-yl-1,2,4-triazol-3-amine] | 100 to 1000 | 1000 to 10000 | – | – | –
Cc1cc(Nc2ncn(-c3cc(F)cc(F)c3)n2)cc(OCC2CC(F)(F)C2)c1 [Compound 706, N-[3-[(3,3-difluorocyclobutyl)methoxy]-5-methyl-phenyl]-1-(3,5-difluorophenyl)-1,2,4-triazol-3-amine] | – | – | 1 to 10 | 1 to 10 | –
Cc1cc(Nc2ncn(-c3cncc(F)c3)n2)cc(C2COC2)c1 [Compound 447, 1-(5-fluoro-3-pyridyl)-N-[3-methyl-5-(oxetan-3-yl)phenyl]-1,2,4-triazol-3-amine] | – | – | 10 to 100 | 10 to 100 | –
FC(F)(F)c1cc(Nc2ncn(-c3cnccn3)n2)cc(N2CC3CC(C2)O3)c1 [Compound 513, N-[3-(6-oxa-3-azabicyclo[3.1.1]heptan-3-yl)-5-(trifluoromethyl)phenyl]-1-pyrazin-2-yl-1,2,4-triazol-3-amine] | – | – | 100 to 1000 | 100 to 1000 | –
CCc1cc(Nc2ncn(-c3cncnc3)n2)cc(N2CC(N3CCOCC3)C2)c1 [Compound 544, N-[3-ethyl-5-(3-morpholinoazetidin-1-yl)phenyl]-1-pyrimidin-5-yl-1,2,4-triazol-3-amine] | – | – | 1 to 10 | 10 to 100 | –
Cc1cc(Nc2ncn(-c3cc(F)cc(F)c3)n2)cc(OC2CCCOC2)c1 (stereo not drawn) [Compound 635, 1-(3,5-difluorophenyl)-N-(3-methyl-5-tetrahydropyran-3-yloxy-phenyl)-1,2,4-triazol-3-amine] | – | – | 10 to 100 | 1 to 10 | –
Cc1cc(Nc2ncn(-c3ccccc3)n2)cc(N2CCC(F)CC2)n1 [Compound 430, 2-(4-fluoro-1-piperidyl)-6-methyl-N-(1-phenyl-1,2,4-triazol-3-yl)pyridin-4-amine] | – | – | 100 to 1000 | ≤ 1 | –
Cc1cc(Nc2ncn(-c3cc(F)cc(F)c3)n2)cc(N2CCN(CC3CCOC3)CC2)c1 (stereo not drawn) [Compound 936, 1-(3,5-difluorophenyl)-N-[3-methyl-5-[4-(tetrahydrofuran-3-ylmethyl)piperazin-1-yl]phenyl]-1,2,4-triazol-3-amine] | – | – | – | – | fold induction at 1 µM [4]: 10 to 100; fold induction at 10 µM [4]: ≤ 1
Cc1cc(-n2cnc(Nc3cc(F)cc(N4CCN(C5COC5)CC4)c3)n2)ccc1F [Compound 647, 1-(4-fluoro-3-methyl-phenyl)-N-[3-fluoro-5-[4-(oxetan-3-yl)piperazin-1-yl]phenyl]-1,2,4-triazol-3-amine] | – | – | 1 to 10 | ≤ 1 | –
Cc1cc(Nc2ncn(-c3cccc(C(F)(F)F)c3)n2)cc(OCC2(C)COC2)c1 [Compound 671, N-[3-methyl-5-[(3-methyloxetan-3-yl)methoxy]phenyl]-1-[3-(trifluoromethyl)phenyl]-1,2,4-triazol-3-amine] | – | – | 10 to 100 | 1 to 10 | –
Cc1cc(Nc2ncn(-c3cc(F)cc(F)c3)n2)cc(N2CCN(C)CC2)c1 [Compound 37, 1-(3,5-difluorophenyl)-N-[3-methyl-5-(4-methylpiperazin-1-yl)phenyl]-1,2,4-triazol-3-amine] | 100 to 1000 | ≤ 1 | – | – | –
CC(=O)N1CCC(c2cc(C)cc(Nc3ncn(-c4ccccc4)n3)c2)C1 (stereo not drawn) [Compound 443, 1-[3-[3-methyl-5-[(1-phenyl-1,2,4-triazol-3-yl)amino]phenyl]pyrrolidin-1-yl]ethanone] | – | – | 1000 to 10000 | ≤ 1 | –
Cc1cc(Nc2ncn(-c3cc(F)cc(F)c3)n2)cc(N2CC(N3CCO[C@H](C)C3)C2)c1 (single isomer, unassigned) [Compound 696] | – | – | 10 to 100 | 1 to 10 | –
Cc1cc(Nc2ncn(-c3cc(F)cc(F)c3)n2)cc(N2CC(O)C(N3CCCC3)C2)c1 (stereo not drawn) [Compound 1010, 1-[3-[[1-(3,5-difluorophenyl)-1,2,4-triazol-3-yl]amino]-5-methyl-phenyl]-4-pyrrolidin-1-yl-pyrrolidin-3-ol] | – | – | – | – | fold induction at 1 µM [4]: 1 to 10; fold induction at 10 µM [4]: ≤ 1
Cc1cc(Nc2ncn(-c3cccc(F)c3)n2)cc(N2CCN(C3(C)COC3)CC2)c1 [Compound 375, 1-(3-fluorophenyl)-N-[3-methyl-5-[4-(3-methyloxetan-3-yl)piperazin-1-yl]phenyl]-1,2,4-triazol-3-amine] | 1000 to 10000 | 10 to 100 | – | – | –
c1ccc(-n2cnc(Nc3cc(N4CCOCC4)nc(N4CCOCC4)c3)n2)cc1 [Compound 319, 2,6-dimorpholino-N-(1-phenyl-1,2,4-triazol-3-yl)pyridin-4-amine] | 1 to 10 | ≤ 1 | – | – | –
Cc1cc(Nc2ncn(-c3ccccc3)n2)cc(C2CCCN(C3CC3)C2)c1 (stereo not drawn) [Compound 340, N-[3-(1-cyclopropyl-3-piperidyl)-5-methyl-phenyl]-1-phenyl-1,2,4-triazol-3-amine] | 100 to 1000 | ≤ 1 | – | – | –
Cc1cc(Nc2ncn(-c3cc(F)cc(F)c3)n2)cc(N2CCNCC2)c1 [Compound 77, 1-(3,5-difluorophenyl)-N-(3-methyl-5-piperazin-1-yl-phenyl)-1,2,4-triazol-3-amine] | 100 to 1000 | ≤ 1 | – | – | –
COc1cc(Nc2ncn(-c3cc(F)cc(C(F)(F)F)c3)n2)cc(N2CCN(C3COC3)CC2)c1 [Compound 754, 1-[3-fluoro-5-(trifluoromethyl)phenyl]-N-[3-methoxy-5-[4-(oxetan-3-yl)piperazin-1-yl]phenyl]-1,2,4-triazol-3-amine] | – | – | 10 to 100 | 1 to 10 | –
COC1CCN(c2cc(C)cc(Nc3ncn(-c4cc(F)cc(F)c4)n3)c2)CC1 [Compound 1006, 1-(3,5-difluorophenyl)-N-[3-(4-methoxy-1-piperidyl)-5-methyl-phenyl]-1,2,4-triazol-3-amine] | – | – | – | – | fold induction at 1 µM [4]: 10 to 100; fold induction at 10 µM [4]: 1 to 10
COCC1CCN(c2cc(C)cc(Nc3ncn(-c4ccc(F)c(F)c4)n3)c2)CC1 [Compound 299, 1-(3,4-difluorophenyl)-N-[3-[4-(methoxymethyl)-1-piperidyl]-5-methyl-phenyl]-1,2,4-triazol-3-amine] | 100 to 1000 | 10 to 100 | – | – | –
